These results are taken from ChEMBL document CHEMBL1201862, “PubChem BioAssay data set” (2004).

SMILES strings stand for the structures.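 Method: 48-hour compound exposure of cells in 96-well plates, five concentrations, linear interpolation of endpoints. Here, GI50 denotes the concentration required for 50% inhibition of growth.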 The source made the active and inactive calls. Cut-off read from the data, not from the text of the source: active = GI50 up to about 1.1 µM and inactive = higher.

Among the test systems are DU-145; UO-31; KM12; MDA-N; HOP-62; HT-29; HCT-15; OVCAR-3; SK-MEL-2; SK-MEL-5; IGROV-1; UACC-62; NCI-H522; MOLT-4; HOP-92; NCI/ADR-RES; TK-10; MDA-MB-435; SW-620.
Holding throughout (assay): growth of human tumour cells (NCI), 48 h

As to `O=C(O)C1CCN(Cc2oc(CO)cc(=O)c2O)C1` (centres undefined), the GI50 with DU-145, in the experiment on UO-31, in the experiment on KM12, in the experiment on MDA-N, with HOP-62 and in the experiment with HT-29 was > 100 µM (inactive) throughout. Further, the GI50 was > 100 µM in the experiment on HCT-15; > 100 µM (inactive) in the experiment on OVCAR-3; > 100 µM (inactive) in the experiment on SK-MEL-2; > 100 µM (inactive) in the experiment with SK-MEL-5; > 100 µM (inactive) in the experiment on IGROV-1; > 100 µM (inactive) with UACC-62. For the same compound, the GI50 in the experiment with NCI-H522, in the experiment with MOLT-4, with HOP-92, with NCI/ADR-RES, in the experiment on TK-10 and in the experiment with MDA-MB-435 was > 100 µM (inactive) throughout. For the same compound, the GI50 in the experiment with SW-620 is > 100 µM (inactive).

Consider `C=C(C(=O)OC)[C@H]1CC/C(C)=C/CC/C(C)=C/CC[C@@]2(C)O[C@@H]2C1`, for which the GI50 was 21.9 µM (inactive) in the experiment with DU-145; 19 µM (inactive) in the experiment on UO-31; 16.5 µM (inactive) with KM12; 18.2 µM (inactive) in the experiment on MDA-N; 20.7 µM (inactive) in the experiment with HOP-62; 17.3 µM (inactive) in the experiment on HT-29. The GI50 in the experiment with HCT-15 was 16.3 µM; in the experiment on OVCAR-3, 17.7 µM (inactive); in the experiment on SK-MEL-2, 15.3 µM (inactive); in the experiment with SK-MEL-5, 10.3 µM (inactive); with IGROV-1 it was 16 µM (inactive); in the experiment on UACC-62 it was 11.9 µM (inactive). Moreover, the GI50 is 18.2 µM (inactive) with NCI-H522; 15.8 µM (inactive) in the experiment with MOLT-4; 16.4 µM (inactive) in the experiment with HOP-92; 16.4 µM (inactive) with NCI/ADR-RES; 21.5 µM (inactive) with TK-10; 22.9 µM (inactive) in the experiment with MDA-MB-435. Moreover, the GI50 in the experiment with SW-620 was 18.5 µM (inactive).

Take `COc1ccc2c(c1)-c1[nH]c3ccccc3c1CC2`: the GI50 was 17.9 µM (inactive) in the experiment with DU-145; 15.5 µM (inactive) in the experiment on UO-31; 13.6 µM (inactive) with KM12; 16 µM (inactive) with MDA-N; 16.8 µM (inactive) in the experiment with HOP-62; 11 µM (inactive) in the experiment on HT-29. In addition, the GI50 in the experiment on HCT-15 is 14.7 µM; with OVCAR-3 it was 18.2 µM (inactive); in the experiment with SK-MEL-2, 15.5 µM (inactive); in the experiment with SK-MEL-5, 13.2 µM (inactive); in the experiment on IGROV-1, 3.9 µM (inactive); in the experiment on UACC-62 it was 15.6 µM (inactive). Further, the GI50 in the experiment with NCI-H522 was 6.31 µM (inactive); in the experiment with MOLT-4 it was 12.1 µM (inactive); with HOP-92, 17.1 µM (inactive); in the experiment with NCI/ADR-RES it was 11.9 µM (inactive); with TK-10, 16.1 µM (inactive); in the experiment with MDA-MB-435, 16.6 µM (inactive). The GI50 in the experiment with SW-620 is 16.8 µM (inactive).

Consider `COc1c(C)c(C/C=C(\C)CC/C=C(\C)CCC=C(C)C)c(OC)c(OC)c1OC`, for which the GI50 in the experiment on DU-145 is > 100 µM (inactive); in the experiment with UO-31, > 100 µM (inactive); in the experiment with KM12, > 100 µM (inactive); in the experiment on MDA-N, 76.9 µM (inactive); with HOP-62, > 100 µM (inactive); in the experiment on HT-29 it was 76.2 µM (inactive). Also, the GI50 with HCT-15 was > 100 µM; in the experiment with OVCAR-3, > 100 µM (inactive); in the experiment with SK-MEL-2, > 100 µM (inactive); with SK-MEL-5 it was 74.5 µM (inactive); in the experiment on IGROV-1, > 100 µM (inactive); in the experiment with UACC-62, > 100 µM (inactive). The GI50 with NCI-H522 was 41.3 µM (inactive); with MOLT-4 it was 91.4 µM (inactive); in the experiment on HOP-92, > 100 µM (inactive); in the experiment with NCI/ADR-RES, > 100 µM (inactive); in the experiment with TK-10, > 100 µM (inactive); in the experiment on MDA-MB-435, 21.5 µM (inactive). In addition, the GI50 in the experiment with SW-620 is > 100 µM (inactive).

Regarding `COc1cc(CCNC2=CC(=O)c3nc[nH]c3C2=O)ccc1O`, the GI50 was 20 µM (inactive) in the experiment on DU-145; 40.3 µM (inactive) with UO-31; 27.3 µM (inactive) in the experiment on KM12; 18 µM (inactive) with MDA-N; 40.1 µM (inactive) in the experiment on HOP-62; 23.6 µM (inactive) in the experiment on HT-29. Further, the GI50 in the experiment on HCT-15 is 33 µM; with OVCAR-3 it was 3.16 µM (inactive); in the experiment with SK-MEL-2, 21.4 µM (inactive); with SK-MEL-5, 14.4 µM (inactive); with IGROV-1, 23.2 µM (inactive); in the experiment with UACC-62, 19.2 µM (inactive). In addition, the GI50 was 22.7 µM (inactive) in the experiment with NCI-H522; 32.6 µM (inactive) in the experiment with MOLT-4; 25.3 µM (inactive) in the experiment on HOP-92; > 100 µM (inactive) in the experiment on NCI/ADR-RES; 36.1 µM (inactive) in the experiment with TK-10; 17.6 µM (inactive) in the experiment with MDA-MB-435. Also, in the experiment on SW-620, the GI50 is 23.8 µM (inactive).

With `C/C(=N/NC(=S)N1CCCCC1)c1ccccc1O`, the GI50 with DU-145 was > 31.6 µM (inactive); in the experiment with UO-31, > 31.6 µM (inactive); in the experiment with KM12, 26.1 µM (inactive); in the experiment on MDA-N, > 31.6 µM (inactive); in the experiment with HOP-62, > 100 µM (inactive); with HT-29 it was 23.1 µM (inactive). Besides, the GI50 in the experiment with HCT-15 was > 31.6 µM; in the experiment on OVCAR-3, 16.4 µM (inactive); in the experiment on SK-MEL-2 it was > 31.6 µM (inactive); with SK-MEL-5, 60.8 µM (inactive); with IGROV-1, > 41.2 µM (inactive); in the experiment on UACC-62 it was > 31.6 µM (inactive). Also, the GI50 with NCI-H522 was 26.5 µM (inactive); with MOLT-4 it was > 31.6 µM (inactive); in the experiment on HOP-92, > 31.6 µM (inactive); in the experiment with NCI/ADR-RES it was 28.2 µM (inactive); in the experiment on TK-10, > 31.6 µM (inactive); in the experiment with MDA-MB-435, > 31.6 µM (inactive). Moreover, the GI50 in the experiment with SW-620 is > 31.6 µM (inactive).

Regarding `CCc1n[nH]c(=O)n1N=C(c1ccccc1)c1ccccc1`, the GI50 in the experiment with DU-145, in the experiment on UO-31, in the experiment on KM12, with MDA-N, in the experiment on HOP-62 and in the experiment with HT-29 was > 100 µM (inactive) throughout. Moreover, the GI50 with HCT-15 is > 100 µM; in the experiment with OVCAR-3 it was > 100 µM (inactive); in the experiment with SK-MEL-2, > 100 µM (inactive); in the experiment with SK-MEL-5, > 100 µM (inactive); in the experiment with IGROV-1 it was > 100 µM (inactive); in the experiment on UACC-62 it was > 100 µM (inactive). Also, the GI50 in the experiment on NCI-H522, with MOLT-4, in the experiment with HOP-92, with NCI/ADR-RES, in the experiment on TK-10 and in the experiment on MDA-MB-435 was > 100 µM (inactive) in each case. In addition, the GI50 in the experiment on SW-620 is > 100 µM (inactive).

For the compound `CC(=O)C(C(C)=O)[C@@H]1OC(C)(C)O[C@@H]1[C@H]1COC(C)(C)O1`, the GI50 in the experiment on DU-145 was 51.8 µM (inactive); in the experiment on UO-31 it was 55.2 µM (inactive); with KM12, 41.4 µM (inactive); in the experiment with MDA-N it was 23.3 µM (inactive); in the experiment with HOP-62, 45.9 µM (inactive); in the experiment on HT-29, 32.8 µM (inactive). Besides, the GI50 in the experiment with HCT-15 was 41.5 µM; with OVCAR-3 it was 62.8 µM (inactive); in the experiment with SK-MEL-2, 28.5 µM (inactive); in the experiment on SK-MEL-5, 47.8 µM (inactive); in the experiment on IGROV-1, 35.6 µM (inactive); in the experiment with UACC-62, > 100 µM (inactive). Besides, the GI50 in the experiment on NCI-H522 was 26.9 µM (inactive); in the experiment with MOLT-4, 47.5 µM (inactive); in the experiment on HOP-92, > 100 µM (inactive); in the experiment on NCI/ADR-RES, 55.6 µM (inactive); with TK-10 it was > 100 µM (inactive); in the experiment on MDA-MB-435 it was 38.7 µM (inactive). The GI50 with SW-620 was 36.6 µM (inactive).

With `CCOP(=O)(OCC)C(c1ccccc1)N(C(=O)NC(F)(F)F)c1ccc(C)cc1` (centres undefined), the GI50 with DU-145, in the experiment with UO-31, in the experiment on KM12, in the experiment on MDA-N, with HOP-62 and in the experiment on HT-29 was > 100 µM (inactive) each time. The GI50 is > 100 µM with HCT-15; > 100 µM (inactive) in the experiment with OVCAR-3; > 100 µM (inactive) in the experiment on SK-MEL-2; > 100 µM (inactive) with SK-MEL-5; > 100 µM (inactive) with IGROV-1; > 100 µM (inactive) in the experiment with UACC-62. The GI50 in the experiment on NCI-H522 was > 100 µM (inactive); with MOLT-4 it was > 100 µM (inactive); in the experiment on HOP-92, 19.1 µM (inactive); in the experiment with NCI/ADR-RES, > 100 µM (inactive); in the experiment with TK-10, > 100 µM (inactive); in the experiment on MDA-MB-435, > 100 µM (inactive). Also, the GI50 in the experiment with SW-620 was > 100 µM (inactive).

For the compound `O=c1cc(/N=N\c2ccc(Cl)cc2)[nH]c(=O)[nH]1`, the GI50 is 9.23 µM (inactive) in the experiment with DU-145; 4.82 µM (inactive) with UO-31; 5.27 µM (inactive) in the experiment on KM12; 4.71 µM (inactive) with MDA-N; 7.74 µM (inactive) with HOP-62; 2.35 µM (inactive) in the experiment on HT-29. In addition, the GI50 was 1.96 µM in the experiment with HCT-15; 4.12 µM (inactive) in the experiment on OVCAR-3; 13.3 µM (inactive) in the experiment with SK-MEL-2; 10.6 µM (inactive) with SK-MEL-5; 3.44 µM (inactive) in the experiment with IGROV-1; 3.48 µM (inactive) in the experiment on UACC-62. For the same compound, the GI50 in the experiment with NCI-H522 was 1.71 µM (inactive); with MOLT-4 it was 2.9 µM (inactive); in the experiment on HOP-92, 2.07 µM (inactive); in the experiment on NCI/ADR-RES, 7.4 µM (inactive); with TK-10 it was 7.55 µM (inactive); with MDA-MB-435, 4.84 µM (inactive). In the experiment with SW-620, the GI50 is 2.33 µM (inactive).

With `N#C[BH2-][n+]1cn(C2CC(OP(=O)(O)OCC3OC(n4cnc5c(=O)[nH]c(N)nc54)CC3O)C(CO)O2)c2nc(N)[nH]c(=O)c21` (centres undefined), the GI50 in the experiment with DU-145, in the experiment on UO-31, in the experiment with KM12, in the experiment on MDA-N, in the experiment with HOP-62 and with HT-29 was > 100 µM (inactive) in each case. The GI50 is > 100 µM in the experiment with HCT-15; > 100 µM (inactive) in the experiment on OVCAR-3; > 100 µM (inactive) with SK-MEL-2; > 100 µM (inactive) in the experiment with SK-MEL-5; > 100 µM (inactive) with IGROV-1; > 100 µM (inactive) in the experiment on UACC-62. Also, the GI50 with NCI-H522 was > 100 µM (inactive); in the experiment on MOLT-4 it was 81.8 µM (inactive); in the experiment with HOP-92, > 100 µM (inactive); with NCI/ADR-RES, > 100 µM (inactive); in the experiment with TK-10 it was > 100 µM (inactive); in the experiment on MDA-MB-435, > 100 µM (inactive). Further, the GI50 in the experiment with SW-620 was > 100 µM (inactive).
